One compound from patent US7538092B2, “Pharmaceutically active oligosaccharide conjugates” (Fresenius Kabi Deutschland GmbH, priority 2002, dated 2009) can be followed below.

The data set can be described thus: Determination of solubility in water / PBS. Format: physicochemical. As to conditions: only using solution with extreme pH values.

With `C[C@@H]1[C@H](O)[C@@H](C)/C=C/C=C/C=C/C=C/C=C/C=C/C=C/[C@H](O[C@@H]2O[C@H](C)[C@@H](O)[C@H](N)[C@@H]2O)C[C@@H]2O[C@](O)(C[C@@H](O)C[C@@H](O)[C@H](O)CC[C@@H](O)C[C@@H](O)CC(=O)O[C@H]1C)C[C@H](O)[C@H]2C(=O)O` [Amphotericin B], the water solubility result is “around 0.1 mg per ml”.
